This note sets out measurements from patent publication US11254649B2, “Crystalline fumarate salt of (S)-[3,4-difluoro-2-(2-fluoro-4-iodophenylamino)phenyl] [3-hydroxy-3-(piperidin-2-yl) azetidin-1-yl]-methanone” (Exelixis, Inc., priority 2015, dated 2022).

Each structure is given as a SMILES string. “Also recorded” adds a separate entry of the source. Counter-ions that a name gives are not always drawn.

Holding throughout (assay type): physicochemical
One data set can be described thus: Water solubility. Conditions: at 25° C.
Data set [1] can be described thus: Storage stability at 25° C/0% RH and 25° C/90% RH. Conditions: 25° C/0% relative humidity (RH) and 25° C/90% RH.
A short description of data set [2]: Intrinsic dissolution rate (USP <1088>). Conditions: for Intrinsic Dissolution Rate: pellet 0.5 cm^2, 0.05M Acetate Buffer pH = 4.5, 37 C., 100 RPM, UV at 278 nm. An excerpt:
For each intrinsic dissolution measurement, a pellet was produced from the crystalline Form A or the amorphous form sample using an applied load of approximately 15 kN into a flat disk (surface area=0.5 cm^2). After compaction, each pellet was checked by XRPD to confirm that no polymorphic transformation had occurred during the pelleting process. [table] Batches of Form A and the amorphous form (from freeze-drying) were used to determine the intrinsic dissolution rate of both solid forms. Intrinsic dissolution allows the characterization of different crystal forms by exposing a constant surface area to the dissolution medium.

Data set [3] in a line: Hygroscopicity by dynamic moisture sorption/desorption (DVS). Particulars: 25° C.; for reversible weight gain or loss: between 0% RH and 90% RH; for conversion during dynamic vapor sorption experiments: time scale of standard DVS experiments, 0-90% RH; for hygroscopicity classification: weight increase 0% RH to 90% RH. The method, then: Moisture sorption/desorption data were collected on a DVS-1/DVS-HT/DVS-intrinsic (SMS Surface Measurements Systems) moisture balance system. The sorption/desorption isotherms were measured stepwise in a range of 0% RH (relative humidity) to 90% RH at 25° C. A weight change of <0.002 mg/min was chosen as a criterion to switch to the next level of RH (with a maximum equilibration time of 24 hours, if the weight criterion was not met). The data were corrected for the initial moisture content of the samples; that is, the weight after drying the sample at 0% RH was taken as the zero point. The hygroscopicity of a given substance is characterized by the increase in mass when the RH was raised from 0% RH to 90% RH as given in Table 7. [table]

The nature of data set [4]: Polymorphism screening / solid form stability and conversion. Conditions: for thermodynamic stability / conversion of solid form: polymorphism screening, approximately 3000 crystallization experiments. As for the experimental part: The amorphous form is non-crystalline and hygroscopic. […] In approximately 3000 crystallization experiments performed during polymorphism screenings, no additional polymorphic form was observed. Based on DSC measurements as well as temperature-controlled XRPD, no conversion of the polymorphic form is observable under heating until melting occurs. […] DSC thermograms were recorded using a Mettler-Toledo instrument (DSC820/821e/1; FRS05 sensor). Approximately 2-6 mg of the sample were placed in aluminum pans and sealed with aluminum lids. Lids were automatically pierced prior to heating. Generally, samples under nitrogen were heated at a rate of 10 K/min to a maximum of 250° C.

Where [5] appears, read: listed as crystalline fumarate salt of Compound I.

With `O=C(c1ccc(F)c(F)c1Nc1ccc(I)cc1F)N1CC(O)([C@@H]2CCCCN2)C1` [Form A, crystalline fumarate salt of (S)-[3,4-difluoro-2-(2-fluoro-4-iodophenylamino)phenyl] [3-hydroxy-3-(piperidin-2-yl)azetidin-1-yl]-methanone], the solubility (commonly how much of the substance goes into solution per volume) in the data set “Water solubility” came to 1600 µg/mL. For the same compound, the “change in assay, purity, moisture and dissolution” value in data set [1] was “no change”. For the same compound, in data set [2], the “Intrinsic Dissolution Rate” value worked out at 0.0756 mg*cm−2*min−1. Also, in data set [3], the “reversible weight gain or loss” value worked out at 0.1%, the “conversion during dynamic vapor sorption experiments” value is listed as “no conversion was observed” and the hygroscopicity classification result is on record as “non-hygroscopic; also recorded: nonhygroscopic”. Further, in data set [3] (setting [5]), the hygroscopicity classification entry was “non-hygroscopic”. Further, in data set [4] (DSC), the “thermal stability by DSC” value is “stable up to the melting point of 239 °C”. For the same compound, in data set [4], the “thermodynamic stability / conversion of solid form” value is listed as “thermodynamically stable form”. In data set [4] (setting [5]), the “thermodynamic stability / conversion of solid form” value is “thermodynamically stable”.

Consider `O=C(c1ccc(F)c(F)c1Nc1ccc(I)cc1F)N1CC(O)([C@@H]2CCCCN2)C1` [the amorphous form], for which the “intrinsic dissolution rate relative to crystalline Form A” value in data set [2] (amorphous form vs Form A) is “approximately 35 times”. The “Intrinsic Dissolution Rate” value in data set [2] is reported as 2.6996 mg*cm−2*min−1. In data set [3] (listed as the amorphous from), the “reversible weight gain or loss” value is on record as 12.1%. The “conversion during dynamic vapor sorption experiments” value in data set [3] is listed as “no conversion was observed”. Further, the hygroscopicity classification result in data set [3], in data set [3] (listed as The amorphous form) and in data set [3] (listed as the amorphous from) was “hygroscopic” in each case. Further, the “conversion in slurry experiment” value in data set [4] (2-propanol/water 88:12, 20° C.) is listed as “converted rapidly into Form A”. Moreover, the “thermodynamic stability / conversion of solid form” value in data set [4] is “converts to crystalline Form A”; in data set [4] (listed as The amorphous form), “convert to Form A by heating and by solvent mediated phase transition in water”.
